The experiment deals with T1, NMDA receptor composed of four subunits including 2 sets of heterodimers of NR1 and NR2B (Homo sapiens, UniProt Q13224).
T1 construct: host or cells: HEK293 (tetracycline-induced expression)
T1 sequence (Q13224 27-1484, other chains not shown): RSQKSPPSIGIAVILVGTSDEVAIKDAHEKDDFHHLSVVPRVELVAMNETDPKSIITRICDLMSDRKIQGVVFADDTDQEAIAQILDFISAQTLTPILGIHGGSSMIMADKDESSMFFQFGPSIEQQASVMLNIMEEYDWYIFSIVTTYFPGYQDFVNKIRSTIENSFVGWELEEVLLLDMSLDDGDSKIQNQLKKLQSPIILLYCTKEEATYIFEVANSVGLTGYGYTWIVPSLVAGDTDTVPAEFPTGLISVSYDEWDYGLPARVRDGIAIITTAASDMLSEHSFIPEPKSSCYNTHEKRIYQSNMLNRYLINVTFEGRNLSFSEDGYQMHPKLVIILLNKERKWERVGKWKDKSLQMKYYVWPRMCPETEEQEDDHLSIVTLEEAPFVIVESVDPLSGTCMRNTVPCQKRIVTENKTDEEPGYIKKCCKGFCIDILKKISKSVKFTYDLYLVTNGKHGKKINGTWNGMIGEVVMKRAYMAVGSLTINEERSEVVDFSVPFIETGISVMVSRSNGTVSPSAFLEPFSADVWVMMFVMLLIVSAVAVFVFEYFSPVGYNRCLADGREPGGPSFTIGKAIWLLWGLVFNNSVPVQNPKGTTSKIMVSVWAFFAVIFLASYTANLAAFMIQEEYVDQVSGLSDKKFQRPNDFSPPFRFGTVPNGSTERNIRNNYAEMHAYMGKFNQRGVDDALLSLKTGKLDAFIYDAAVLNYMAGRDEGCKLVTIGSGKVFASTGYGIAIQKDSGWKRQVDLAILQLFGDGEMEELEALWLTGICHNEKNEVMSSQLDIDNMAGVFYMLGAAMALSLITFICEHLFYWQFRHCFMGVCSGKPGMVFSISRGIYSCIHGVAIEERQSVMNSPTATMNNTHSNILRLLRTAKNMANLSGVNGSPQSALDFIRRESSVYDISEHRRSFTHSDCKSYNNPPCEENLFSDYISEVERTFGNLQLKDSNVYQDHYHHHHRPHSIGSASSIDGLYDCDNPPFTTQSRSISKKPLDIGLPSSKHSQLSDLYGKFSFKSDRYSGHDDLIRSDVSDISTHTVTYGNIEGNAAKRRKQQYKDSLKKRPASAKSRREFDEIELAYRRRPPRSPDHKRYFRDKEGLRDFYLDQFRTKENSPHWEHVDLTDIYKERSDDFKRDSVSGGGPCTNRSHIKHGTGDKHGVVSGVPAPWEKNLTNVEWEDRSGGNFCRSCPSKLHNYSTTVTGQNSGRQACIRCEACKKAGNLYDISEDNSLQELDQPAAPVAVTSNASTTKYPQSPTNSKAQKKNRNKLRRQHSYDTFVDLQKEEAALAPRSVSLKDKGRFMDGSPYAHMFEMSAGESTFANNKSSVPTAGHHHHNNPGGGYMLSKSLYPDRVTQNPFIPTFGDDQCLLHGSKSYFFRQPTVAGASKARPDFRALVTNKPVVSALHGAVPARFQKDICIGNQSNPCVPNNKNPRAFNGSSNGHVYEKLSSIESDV
Nature of the experiment: NR2B Ca2+ influx assay (FLIPR, Fluo-4) in HEK293 cells expressing human GRIN1 and GRIN2B. The experiment is classed as cell-based. As to conditions: HEK293, 10 μM final compound concentration, glutamic acid/glycine-induced Ca2+ influx, read-out: inhibitory rate (10 μM compound concentration). From the text:
To confirm the “antagonistic action on an NMDA receptor containing the NR2B subunit” of the compound of the present invention, human embryonic kidney cell expressing the “NMDA receptor composed of four subunits including 2 sets of heterodimers of NR1 and NR2B”, specifically HEK293 cell expressing human glutamate ionotropic receptor NMDA type subunit 1 (GRIN1) and human glutamate ionotropic receptor NMDA type subunit 2B (GRIN2B), was used and the activation suppressive effect on the receptors was measured.
As an index of the NMDA receptor activation, intracellular calcium ion (Ca^2+) influx caused by the binding of glycine and glutamic acid with NR1 and NR2B, respectively, was used. HEK293 cells were purchased from ChanTest. The cells were cultured in a DMEM/F-12 (COSMO BIO, 10-092-CM) medium added with 10% FBS′(fetal bovine serum, AusGene), 100 units/mL penicillin, 100 μg/mL streptomycin, 500 μg/mL neomycin, 100 μg/mL Zeocin, 5 μg/mL Blasticidin at 37° C., 5% CO2. The cells were detached from flask with trypsin the day before the assay, suspended in a seeding medium (DMEM (Invitrogen, 31053) added with 10% FBS, 100 units/mL penicillin, 100 μg/mL streptomycin) at 8×10^5 cells/mL, seeded by 25 μL per well in a 384-well plate (Falcon, 356663) at 20000 cells/well, and cultured overnight in an incubator. On the day of the assay, tetracycline (Wako Pure Chemical Industries, Ltd., 209-16561) was diluted with the seeding medium at 2 μg/mL, added at […] to the plate seeded with the cells, and cultured for 2 hr in an incubator. Thereafter, the medium was removed, and the cells were washed with 50 μL/well assay buffer (137 mM NaCl, 4 mM KCl, 1.8 mM CaCl2, 10 mM HEPES (pH 7.2), 10 mM Glucose, 0.1% BSA). Then, a loading buffer (assay buffer added with 2.5 uM Fluo-4AM, 2 mM Amaranth, 1 mM Tartrazine) was added at 25 μL/well, and loading was performed in the incubator for 30 min, and at room temperature for 15 min. A solution (25 μL) of the Example compound diluted with the above-mentioned assay buffer at 30 μM (final concentration 10 μM) was added, and the cells were stood for 15 min at room temperature. Using FLIPR (Molecular Devices), 25 μL of an assay buffer containing 30 μM glutamic acid, 30 μM glycine was added, and the fluorescence signal was measured every 3 seconds for 5 min. The inhibitory activity was calculated as a relative activity value (inhibitory rate) that inhibits 100% of the cumulative value of the fluorescence value of a well added with a buffer free of glutamic acid, glycine, relative to the cumulative value of the fluorescence value of each well.
As to `Cc1ccc2nn(C)cc2c1CNC(=O)c1ccc(OC(F)(F)F)cc1` [Example 1, N-((2,5-dimethyl-2H-indazol-4-yl)methyl)-4-(trifluoromethoxy)benzamide], the inhibition at 10 µM amounted to 82%.

On to `Cc1ccc2[nH]ncc2c1CNC(=O)c1ccc(OC(F)(F)F)cc1` [Example 2, N-((5-methyl-1H-indazol-4-yl)methyl)-4-(trifluoromethoxy)benzamide], for which the inhibition at 10 µM stood at 92%.

`Cc1ccc2[nH]cnc2c1CNC(=O)c1ccc(OC(F)(F)F)cc1` [Example 3, N-((5-methyl-1H-benzimidazol-4-yl)methyl)-4-(trifluoromethoxy)benzamide]: the inhibition at 10 µM stood at 97%.

Consider `O=C(NCc1c(I)ccc2[nH]ncc12)c1ccc(OC(F)(F)F)cc1` [Example 4, N-((5-iodo-1H-indazol-4-yl)methyl)-4-(trifluoromethoxy)benzamide], for which the inhibition at 10 µM was determined as 87%.

In the case of `O=C(NCc1c(C(F)(F)F)ccc2[nH]ncc12)c1ccc(OC(F)(F)F)cc1` [Example 5, 4-(trifluoromethoxy)-N-((5-(trifluoromethyl)-1H-indazol-4-yl)methyl)benzamide], the inhibition at 10 µM turned out to be 85%.

With `COc1ccc2[nH]ncc2c1CNC(=O)c1ccc(OC(F)(F)F)cc1` [Example 6, N-((5-methoxy-1H-indazol-4-yl)methyl)-4-(trifluoromethoxy)benzamide], the inhibition at 10 µM was 91%.

As for `O=C(NCc1cccc2[nH]ncc12)c1ccc(OC(F)(F)F)cc1` [Example 7, N-(1H-indazol-4-ylmethyl)-4-(trifluoromethoxy)benzamide], the inhibition at 10 µM worked out at 93%.

Consider `COc1ccc2ncn(C)c2c1CNC(=O)c1cc(F)c(OC)c(F)c1` [Example 8, 3,5-Difluoro-4-methoxy-N-((6-methoxy-1-methyl-1H-benzimidazol-7-yl)methyl)benzamide], for which the inhibition at 10 µM was 92%.

For `COc1ccc2ncn(C)c2c1CNC(=O)c1cc(F)c(C)c(F)c1` [Example 9, 3,5-difluoro-N-((6-methoxy-1-methyl-1H-benzimidazol-7-yl)methyl)-4-methylbenzamide], the inhibition at 10 µM is 92%.

Consider `COc1ccc2ncn(C)c2c1CNC(=O)c1cnc(OC)c(F)c1` [Example 10, 5-fluoro-6-methoxy-N-((6-methoxy-1-methyl-1H-benzimidazol-7-yl)methyl)nicotinamide], for which the inhibition at 10 µM is 92%.

As to `COc1ccc(C(=O)NCc2c(OC)ccc3ncn(C)c23)cc1F` [Example 11, 3-fluoro-4-methoxy-N-((6-methoxy-1-methyl-1H-benzimidazol-7-yl)methyl)benzamide], the inhibition at 10 µM came out at 92%.

Regarding `COc1ccc2ncn(C)c2c1CNC(=O)c1ccc(OC(F)(F)F)cc1` [Example 12, N-((6-methoxy-1-methyl-1H-benzimidazol-7-yl)methyl)-4-(trifluoromethoxy)benzamide], the inhibition at 10 µM amounted to 94%.

For the compound `COc1ccc2ncn(C)c2c1CNC(=O)c1ccc(C(F)(F)F)c(F)c1` [Example 13, 3-fluoro-N-((6-methoxy-1-methyl-1H-benzimidazol-7-yl)methyl)-4-(trifluoromethyl)benzamide], the inhibition at 10 µM was 94%.

`COc1ccc2ncn(C)c2c1CNC(=O)c1ccc(C)c(F)c1` [Example 14, 3-fluoro-N-((6-methoxy-1-methyl-1H-benzimidazol-7-yl)methyl)-4-methylbenzamide]: the inhibition at 10 µM came to 92%.

As for `COc1ccc2ncn(C)c2c1CNC(=O)c1cc(F)c(Cl)c(F)c1` [Example 15, 4-chloro-3,5-difluoro-N-((6-methoxy-1-methyl-1H-benzimidazol-7-yl)methyl)benzamide], the inhibition at 10 µM was 95%.

For the compound `CCc1ccc2[nH]ncc2c1CNC(=O)c1cc(F)c(OC)c(F)c1` [Example 16, N-((5-ethyl-1H-indazol-4-yl)methyl)-3,5-difluoro-4-methoxybenzamide], the inhibition at 10 µM is 94%.

For `COc1c(F)cc(C(=O)NCc2c(C3CC3)ccc3[nH]ncc23)cc1F` [Example 17, N-((5-cyclopropyl-1H-indazol-4-yl)methyl)-3,5-difluoro-4-methoxybenzamide], the inhibition at 10 µM was 93%.

Take `COc1ccc2ncn(C)c2c1CNC(=O)c1cc(F)c(F)c(Cl)c1` [Example 18, 3-chloro-4,5-difluoro-N-((6-methoxy-1-methyl-1H-benzimidazol-7-yl)methyl)benzamide]: the inhibition at 10 µM is 87%.

As for `COc1ncc(C(=O)NCc2c(C)ccc3ncn(C)c23)cc1F` [Example 19, N-((1,6-dimethyl-1H-benzimidazol-7-yl)-methyl)-5-fluoro-6-methoxynicotinamide], the inhibition at 10 µM is 83%.

As to `COc1ncc(C(=O)NCc2c(C3CC3)ccc3ncn(C)c23)cc1F` [Example 20, N-((6-cyclopropyl-1-methyl-1H-benzimidazol-7-yl)methyl)-5-fluoro-6-methoxynicotinamide], the inhibition at 10 µM was 90%.

On to `COc1c(F)cc(C(=O)NCc2c(C3CC3)ccc3ncn(C)c23)cc1F` [Example 21], for which the inhibition at 10 µM amounted to 91%.

Consider `CCc1ccc2ncn(C)c2c1CNC(=O)c1cnc(OC)c(F)c1` [Example 22, N-((6-ethyl-1-methyl-1H-benzimidazol-7-yl)-methyl)-5-fluoro-6-methoxynicotinamide], for which the inhibition at 10 µM was determined as 90%.

In the case of `CCc1ccc2ncn(C)c2c1CNC(=O)c1cc(F)c(OC)c(F)c1` [Example 23, N-((6-ethyl-1-methyl-1H-benzimidazol-7-yl)-methyl)-3,5-difluoro-4-methoxybenzamide], the inhibition at 10 µM came out at 93%.

In the case of `COc1ccc2ncn(C)c2c1CNC(=O)c1cc(F)c(C(F)(F)F)c(F)c1` [Example 24, 3,5-difluoro-N-((6-methoxy-1-methyl-1H-benzimidazol-7-yl)-methyl)-4-(trifluoro-methyl)benzaraide], the inhibition at 10 µM came to 90%.

With `COc1c(F)cc(C(=O)NCc2c(C)ccc3ncn(C)c23)cc1F` [Example 25, N-((1,6-dimethyl-1H-benzimidazol-7-yl)-methyl)-3,5-difluoro-4-methoxybenzamide], the inhibition at 10 µM came out at 92%.

As for `Cc1ccc2ncn(C)c2c1CNC(=O)c1cc(F)c(C(F)(F)F)c(F)c1` [Example 26, N-((1,6-dimethyl-1H-benzimidazol-7-yl)-methyl)-3,5-difluoro-4-(trifluoromethyl)benzamide], the inhibition at 10 µM was 66%.

Consider `COc1ccc2ncn(C)c2c1CNC(=O)c1csc(C)c1` [Example 27, N-((6-methoxy-1-methyl-1H-benzimidazol-7-yl)-methyl)-5-methylthiophene-3-carboxamide], for which the inhibition at 10 µM amounted to 82%.

As to `COc1ccc2ncn(C)c2c1CNC(=O)c1csc(Cl)c1` [Example 28, 5-chloro-N-((6-methoxy-1-methyl-1H-benzimidazol-7-yl)nethyl)thiophene-3-carboxamide], the inhibition at 10 µM is 90%.

Consider `CCc1cc(C(=O)NCc2c(OC)ccc3ncn(C)c23)cs1` [Example 29], for which the inhibition at 10 µM is 91%.

For the compound `Cc1ccc2ncn(C)c2c1CNC(=O)c1ccc(OC(F)(F)F)c(F)c1` [Example 30, N-((1,6-dimethyl-1H-benzimidazol-7-yl)-methyl)-3-fluoro-4-(trifluoromethoxy)-benzamide], the inhibition at 10 µM was found to be 90%.

Turning to `Cc1ccc2ncn(C)c2c1CNC(=O)c1ccc(OC(F)F)c(Cl)c1` [Example 31, 3-chloro-4-(difluoromethoxy)-N-((1,6-dimethyl-1H-benzimidazol-7-yl)methyl)benzamide], the inhibition at 10 µM came out at 91%.

Take `COc1ccc2ncn(C)c2c1CNC(=O)c1ccc(C)s1` [Example 32, N-((6-methoxy-1-methyl-1H-benzimidazol-7-yl)methyl)-5-methylthiophene-2-carboxamide]: the inhibition at 10 µM turned out to be 77%.

Take `COc1ccc2ncn(C)c2c1CNC(=O)Cc1cccs1` [Example 33, N-((6-methoxy-1-methyl-1H-benzimidazol-7-yl)methyl)-2-(2-thienyl)acetamide]: the inhibition at 10 µM was 86%.

For the compound `COc1ccc(C(=O)NCc2c(OC)ccc3ncn(C)c23)cc1Cl` [Example 34, 3-chloro-4-methoxy-N-((6-methoxy-1-methyl-1H-benzimidazol-7-yl)methyl)benzamide], the inhibition at 10 µM came to 89%.

The values are drawn from patent US11230541B2, “Heterocyclic compound” (Takeda Pharmaceutical Company Limited, priority 2017, dated 2022).
